{"source": "patent US5854279A", "about": "“Therapeutic agent for dermatosis” (Eisai Co., Ltd, priority 1996, dated 1998)", "key": {"[1]": {"system": "epidermal ornithine decarboxylase (ODC)", "test": "TPA-induced mouse epidermal ornithine decarboxylase (ODC) activity", "type": "in vivo, hairless mouse (SKH/hr-1)", "conditions": "for Epidermal ODC Activity: TPA 17 nmol, average of five cases ± standard error", "protocol": "(2) Measurement of Mouse Epidermal Ornithine Decarboxylase (ODC) Activity\n1) Induction of ODC Activity\nThe experiment was carried out according to the method by O'Brien et al. (Cancer Research, 1975, 35(2), p 1662-1670).\n[…] of acetone solution containing 17 nmol of TPA (phorbol 12-myristate 13-acetate, manufactured by Sigma) and 0.5 to 2 μmol of Compound (II) or 2-(2-acetyl-6-methoxy-3,9-dioxo-4,8-dioxa-2,10-diazaoctacosa-1-yl)-1-ethylpyridinium salt (customary name; CV-6209, manufactured by Wako Junyaku) was homogeneously applied on the skin of the back (about 8 cm^2) of the hairless mouse (strain: SKH/hr-1, female, age in week of 9). After 4.5 hours, mouse was killed by anesthetizing with ether, and skin tissue was excised. The skin tissue was treated at 55° C. for 30 seconds, then ice-cooled and the epidermis was peeled off. To this epidermis, 1 ml of 50 mM sodium phosphate buffer [pH 7.2, 0.4 mM pyridoxal 5-phosphate (manufactured by Sigma), 5 mM dithiothreitol (manufactured by Sigma)] were added, homogenized and then centrifuged at 4° C. and 30,000 g for 30 minutes to obtain a supernatant.\n2) Measurement of ODC Activity\nODC activity in the supernatant was measured by ^14 CO2 release from L-[1-^14 C]ornithine (manufactured by Sigma) as an index. A tube containing 50 μl of the above buffer comprising 1 mM L-ornithine and […] L-[1-^14 C]ornithine (manufactured by Amersham) as well as 100 μl of homogenate sample added thereto was rapidly placed into a vial, and sealed. This vial was incubated at 37° C. for one hour, to which was added 0.3 ml of 2M citric acid solution and further incubated for one hour. ^14 CO2 released during this period was trapped by using a filter containing 0.15 ml of NCS solubilizer set in the reaction vial. After removing out the tube, 15 ml of liquid scintillator (ACSII) was added and radioactivity in the vial was measured by using a liquid scintillation counter.\nFurther, the concentration of protein in the homogenate sample was quantified by using the above BIO-RAD PROTEIN ASSAY, and the amount of the released ^14 CO2 /mg protein was calculated and used as an index of ODC activity."}, "[2]": {"test": "Acute toxicity test, single intravenous dosage (LD50), mouse", "set-up": "species or system mouse (Slc:ICR)", "conditions": "in vivo", "text": "(§1) Slc:SD rat and Slc:ICR mice (age in week of 6 to 8), each group has 5 male and 5 female, were applied to a toxicity test upon single dosage carried out by intravenous administration."}, "[3]": {"test": "Acute toxicity test, single intravenous dosage (LD50), rat", "set-up": "species or system rat (Slc:SD)", "conditions": "in vivo", "text": "as §1"}, "[4]": {"system": "TPA-induced earlobe edema", "test": "TPA-induced ear edema", "type": "in vivo, BALB/c mouse", "conditions": "for Right earlobe edema: TPA 2 μmol, average of seven cases ± SEM", "protocol": "The test was conducted according to the method by Carlson et al. (Agents and Actions, 1985, 17(2), p 197-204).\n(§2) That is, 2 mg of TPA (phorbol 12-myristate 13-acetate, manufactured by Sigma Chemical Co.) and 4 to 100 nmol of Compound (II) or 250 nmol of dexamethasone (manufactured by Sigma Chemical Co.) were dissolved in 20 ml of acetone. The mixture was applied to inner surface of the right earlobe of BALB/c mouse (male, age in week of 8), to induce inflammation. Four hours after TPA application, the mouse was killed by dislocation of cervical vertebrae and the thickness of each right and left earlobe was measured by using a Dial Thickness Gauge (manufactured by Peacock Co., G0.01 to 10 mm) and the difference in thickness between right and left earlobe was considered as edema."}, "[5]": {"system": "MPO (myeloperoxidase)", "test": "MPO activity in TPA-treated earlobe", "type": "in vivo, BALB/c mouse", "conditions": "for MPO Activity: TPA 2 μmol, average of seven cases ± SEM", "protocol": "as §2, with “The” for “That is, 2 mg of TPA (phorbol 12-myristate 13-acetate, manufactured by Sigma Chemical Co.) and 4 to 100 nmol of Compound (II) or 250 nmol of dexamethasone (manufactured by Sigma Chemical Co.) were dissolved in 20 ml of acetone. The”\n2) Measurement of MPO Activity\nAfter measurement of edema, MPO (myeloperoxidase) activity of the excised right earlobe was measured by the following method. 1 ml of 0.5% HTAB (hexadecyl trimethylammonium bromide, manufactured by Sigma Chemical Co.)/50 mM potassium phosphate buffer, pH 6.0 was added to the excised right earlobe and homogenized. The supernatant obtained after centrifugation was used as an extract. Measurement of MPO activity in the extract was carried out according to a method using a 96-well plate. […] Absorbance at 450 nm was measured for 3 minutes at every 10 seconds. The slope of the straight line obtained for 1 minute after 10 seconds from the beginning of the reaction was calculated for every each sample. MPO activity when the slope is 1 is defined as 1 unit (U), and number of unit in the extract was obtained. Further, the amount of protein in the extract was quantified by BIO-RAD PROTEIN ASSAY (manufactured by Bio-Rad Laboratories), and expressed as MPO activity/mg protein."}, "[6]": {"conditions": "2 μmol, Compound (II) p < 0.01 vs. TPA control"}, "[7]": {"conditions": "2 μmol, significant for Compound (II)"}}, "note": "Counter-ions that a name gives are not always drawn.", "data": [{"molecule": "CCCCCCCCCCCCCCCCCCNC(=O)OCC(COC(=O)N(Cc1cccc[n+]1CC)C(C)=O)OC", "note": "(centres unmarked) [CV-6209, 2-(2-acetyl-6-methoxy-3,9-dioxo-4,8-dioxa-2,10-diazaoctacosa-1-yl)-1-ethylpyridinium salt]", "values": [{"measurement": "Epidermal ODC Activity", "setting": "[1]; [6]", "value": "0.374 ± 0.147", "unit": "nmol CO2 /mg protein"}, {"measurement": "inhibition of TPA-induced increase in epidermal ODC activity", "setting": "[1]; [7]", "value": "about 53%"}]}, {"molecule": "CCCCCCCCCCCCCCCCCCNC(=O)OC1CCN(C(=O)OC[C@H](COC(=O)N(Cc2cccc[n+]2CC)C(=O)c2ccccc2OC)OC)CC1", "note": "[Compound (II), 1-ethyl-2-[N-(2-methoxy)benzoyl-N-{(2R)-2-methoxy-3-(4-octadecylcarbamoyloxy)piperidinocarbonyloxypropoxy}carbonyl]aminomethyl pyridinium chloride]", "values": [{"measurement": "LD50", "setting": "[2]; female", "value": 50, "unit": "mg/kg"}, {"measurement": "LD50", "setting": "[2]; male", "value": 46.8, "unit": "mg/kg"}, {"measurement": "LD50", "setting": "[3]; female", "value": 22.9, "unit": "mg/kg"}, {"measurement": "LD50", "setting": "[3]; male", "value": 18.2, "unit": "mg/kg"}, {"measurement": "inhibition for TPA-induced earlobe edema", "setting": "[4]; 4 nmol/ear", "value": "no inhibition"}, {"measurement": "Right earlobe edema", "setting": "[4]; 4 nmol/earlobe", "value": "105.9 ± 33.4", "unit": "μm"}, {"measurement": "inhibition for TPA-induced earlobe edema", "setting": "[4]; 20 nmol/ear", "value": "no inhibition"}, {"measurement": "Right earlobe edema", "setting": "[4]; 20 nmol/earlobe", "value": "92.7 ± 19.8", "unit": "μm"}, {"measurement": "inhibition for TPA-induced earlobe edema", "setting": "[4]; 100 nmol/ear, significant", "value": "about 81%"}, {"measurement": "Right earlobe edema", "setting": "[4]; 100 nmol/earlobe, P < 0.05", "value": "16.7 ± 3.0", "unit": "μm"}, {"measurement": "inhibition against MPO activity", "setting": "[5]; 4 nmol/ear", "value": "did not show inhibition"}, {"measurement": "MPO Activity", "setting": "[5]; 4 nmol/earlobe", "value": "7.63 ± 1.30 U/mg, protein"}, {"measurement": "inhibition against MPO activity", "setting": "[5]; 20 nmol/ear", "value": "did not show inhibition"}, {"measurement": "MPO Activity", "setting": "[5]; 20 nmol/earlobe", "value": "8.51 ± 1.21 U/mg, protein"}, {"measurement": "inhibition against MPO activity", "setting": "[5]; 100 nmol/ear", "value": "about 46%"}, {"measurement": "MPO Activity", "setting": "[5]; 100 nmol/earlobe", "value": "3.45 ± 1.06 U/mg, protein"}, {"measurement": "Epidermal ODC Activity", "setting": "[1]; 0.5 μmol, P < 0.05 vs. TPA control", "value": "0.379 ± 0.130", "unit": "nmol CO2 /mg protein"}, {"measurement": "inhibition of TPA-induced increase in epidermal ODC activity", "setting": "[1]; 0.5 μmol, significant", "value": "about 52%"}, {"measurement": "Epidermal ODC Activity", "setting": "[1]; [6]", "value": "0.136 ± 0.066", "unit": "nmol CO2 /mg protein"}, {"measurement": "inhibition of TPA-induced increase in epidermal ODC activity", "setting": "[1]; [7]", "value": "~83", "unit": "%"}]}, {"molecule": "C[C@@H]1C[C@H]2[C@@H]3CCC4=CC(=O)C=C[C@]4(C)[C@@]3(F)[C@@H](O)C[C@]2(C)[C@@]1(O)C(=O)CO", "note": "[Dexamethasone, dexamethasone, reference compound]", "values": [{"measurement": "inhibition for TPA-induced earlobe edema", "setting": "[4]; 250 nmol/ear, significant", "value": "about 60%"}, {"measurement": "Right earlobe edema", "setting": "[4]; 250 nmol/earlobe, P < 0.05", "value": "34.7 ± 3.3", "unit": "μm"}, {"measurement": "inhibition against MPO activity", "setting": "[5]; 250 nmol/ear", "value": "about 13%"}, {"measurement": "MPO Activity", "setting": "[5]; 250 nmol/earlobe", "value": "5.52 ± 0.59 U/mg, protein"}]}]}
